From patent publication US8748459B2, “Pyridinoylpiperidines as 5-HT1F agonists” (Eli Lilly and Company, priority 2002, dated 2014) come the findings set out here.

As a reminder, the EC50 is the concentration giving half of the maximal effect. A higher EC50 goes with a less potent agent.

SMILES strings stand for the structures.

The experiment relates to rabbit saphenous vein. The experiment can be described thus: rabbit saphenous vein contraction. How it is done:
Representative compounds of the present invention were tested in a rabbit saphenous vein contraction assay to measure their ability to mediate vasoconstriction. […] The tips of two 30-gauge stainless steel hypodermic needles bent into an L-shape were slipped into the polyetylene tubing. Vessels were gently pushed from the cannula onto the needles. The needles were then separated so that the lower one was attached with thread to a stationary glass rod and the upper one was tied with thread to the transducer. […] An initial optimum resting force of 1 gm was applied to the saphenous vein. Isometric contractions were recorded as changes in grams of force on a Beckman Dynograph with Statham UC-3 transducers and microscale accessory attachments. Tissues were allowed to equilibrate 1 to 2 hours before exposure to drugs. Cumulative agonist concentration-response curves were generated in tissues and no tissue was used to generate more than two agonist concentration-response curves. […] This vasoconstriction assay measures two important parameters, saphenous vein contraction (EC50) and maximal contraction as a % maximal KCl response (%max KCl).

Consider `CNS(=O)(=O)Cc1ccc2[nH]cc(CCN(C)C)c2c1` [sumatriptan], for which, where the note is “EC50 divided by %max KCl”, the “corrected vasoconstriction EC50” value was determined as 0.0103 µM. The molecule also registered an EC50 (Oryctolagus cuniculus) of 0.66 µM.
